Test results published in patent publication US20200345745A1 (University of Leicester, priority 2017, published 2020).
Where two headings read alike, the source gives them in different places.

Key:
[1] = biological target: recombinant P. fluorescens kynurenine 3-monooxygenase (PfKMO) (Pseudomonas fluorescens, UniProt Q84HF5, C252S/C461S); test: biochemical
Description: Protein was expressed by growing transformed cells in auto induction LB medium (Fermentas) containing 100 μg/mL for 24 hours at 22° C. […] The cell lysate was centrifuged at 180,000 g for 1 hour at 4° C. to remove cell debris. The soluble cell lysate was loaded onto Q-sepharose column equilibrated with anion exchange buffer (20 mM HEPES pH 7.5, 1 mM DTT with 10 mM NaCl) and bound protein was eluted with a gradient (5 column volumes) of increasing NaCl concentration from 50 to 100 mM in anion exchange buffer. Fractions containing KMO were pooled and precipitated in 50% saturated ammonium sulphate by adding precipitation buffer (20 mM HEPES pH 7.5, 3 M ammonium sulphate, 1 mM DTT). The precipitated protein was pelleted by centrifugation at 12,000 g for 20 min, resuspended in a small volume of size exclusion buffer (20 mM HEPES pH 7.0, 150 mM sodium acetate, 1 mM DTT) and passed down a Superdex 75 column. Pure PfKMO was pooled and stored at −80° C.
(§1) KMO activity was measured in the presence of a range of compound concentrations by monitoring the consumption of NADPH at 340 nm upon addition of enzyme via a Cary 50 UV-Vis spectrophotometer (Agilent Technologies). All measurements were performed in triplicate. The IC50 values for each compound were obtained by plotting the percentage inhibition versus the inhibitor concentration and fitting to the Morrison equation using Origin 9.0 software (OriginLab, Northampton, Mass.).

[2] = biological target: T1, recombinant Homo Sapiens kynurenine 3-monooxygenase (HsKMO) (Homo sapiens, UniProt O15229); test: Inhibition of recombinant Homo sapiens KMO (NADPH consumption at 340 nm); format: biochemical; details: 0.5 μM HsKMO, L-Kyn 250 μM, NADPH 200 μM, pH 8.0, triplicate
T1 construct: The gene encoding full-length human KMO was synthesized; glutathione S-transferase (GST; vector pAcGHLT-A); made in house; host or cells: Hi5 insect cells (baculovirus)
T1 sequence (O15229 whole entry): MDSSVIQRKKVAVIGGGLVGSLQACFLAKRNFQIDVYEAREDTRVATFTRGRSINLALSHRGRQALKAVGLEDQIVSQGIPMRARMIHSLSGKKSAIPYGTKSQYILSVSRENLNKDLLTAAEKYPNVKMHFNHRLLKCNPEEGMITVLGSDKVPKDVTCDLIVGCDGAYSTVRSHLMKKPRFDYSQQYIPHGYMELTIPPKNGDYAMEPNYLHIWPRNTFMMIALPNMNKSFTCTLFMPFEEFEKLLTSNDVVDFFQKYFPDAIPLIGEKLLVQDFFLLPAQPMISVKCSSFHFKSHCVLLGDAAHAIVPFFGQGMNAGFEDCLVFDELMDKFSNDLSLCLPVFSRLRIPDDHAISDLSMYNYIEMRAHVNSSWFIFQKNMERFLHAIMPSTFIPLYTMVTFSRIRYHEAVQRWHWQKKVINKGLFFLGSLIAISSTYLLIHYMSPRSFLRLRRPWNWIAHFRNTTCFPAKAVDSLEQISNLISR
Description: The gene encoding full-length human KMO was synthesized (GeneScript) and codon optimized for overexpression in […]. The gene was subcloned into the baculovirus transfer vector pAcGHLT-A-glutathione S-transferase as a Ndel-EcoRI fragment and transfected into Hi5 cells along with linearized baculovirus using the following sense and antisense primers: […]
Cultured cells were lysed in 20 mM potassium phosphate buffer, pH 7.5, 10% glycerol, 0.5% n-dodecyl β-D-maltoside (DDM), 150 mM NaCl, 7 mM 2-mercaptoethanol and 50 μM FAD supplemented with protease inhibitors (Sigma-Aldrich). Soluble lysate was incubated with 3 ml pre-equilibrated glutathione uniflow resin (Clontech). […] Fractions (0.5 ml) were eluted with buffer C (buffer B+33 mM glutathione) and fractions containing KMO pooled, concentrated and loaded onto a Superdex 200 (10/30) size-exclusion chromatography column. Pure KMO was pooled and stored at −80° C.
as §1

[3] = tested on: KMO; details: literature value; read-out: IC50 (KMO inhibition); cited from earlier work

Sequence of recombinant P. fluorescens kynurenine 3-monooxygenase (PfKMO) (Q84HF5 whole entry C252S/C461S): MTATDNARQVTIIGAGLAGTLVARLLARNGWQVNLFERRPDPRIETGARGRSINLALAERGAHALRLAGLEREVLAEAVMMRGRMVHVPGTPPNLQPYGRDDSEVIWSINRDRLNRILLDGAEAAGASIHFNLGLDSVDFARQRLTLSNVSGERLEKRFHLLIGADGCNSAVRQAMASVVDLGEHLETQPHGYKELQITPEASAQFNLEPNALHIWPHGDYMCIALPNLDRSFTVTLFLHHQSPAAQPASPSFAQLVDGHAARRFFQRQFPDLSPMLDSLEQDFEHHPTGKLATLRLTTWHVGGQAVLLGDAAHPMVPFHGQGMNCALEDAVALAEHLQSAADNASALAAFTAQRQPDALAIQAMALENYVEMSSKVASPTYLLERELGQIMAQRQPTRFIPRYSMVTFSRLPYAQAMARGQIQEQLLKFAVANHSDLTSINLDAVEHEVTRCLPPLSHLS

Row | Compound | IC50 ([1]; read-out: IC50 for PfKMO inhibition, 0.1 μM PfKMO, L-Kyn 250 μM, NADPH 200 μM, pH 7.5, triplicate) [µM] | IC50 [2] [µM] | IC50 [3] [µM] | IC50 [1] [µM]
1 | Cc1cc2c(c(C)c1Cl)N(Cc1nn[nH]n1)C(=O)CO2 [Example 9, 6-chloro-5,7-dimethyl-4-(2H-tetrazol-5-ylmethyl)-1,4-benzoxazin-3-one] | 17 | 1.28 |  | 
2 | NC(CC(=O)c1ccc(Cl)c(Cl)c1)C(=O)O (racemic) [(R,S)-3,4-dichlorobenzoylalanine] |  |  | 0.9 | 
3 | Cc1cc2c(c(C)c1Cl)N(CC(=O)OC(C)C)C(=O)CO2 [Example 3, isopropyl 2-(6-chloro-5,7-dimethyl-3-oxo-1,4-benzoxazin-4-yl)acetate] |  | > 100 |  | > 100
4 | Cc1cc2c(c(C)c1Cl)N(CC(N)=O)C(=O)CO2 [Example 8, 2-(6-chloro-5,7-dimethyl-3-oxo-1,4-benzoxazin-4-yl)acetamide] |  | > 100 |  | > 100
5 | Cc1cc2c(c(C)c1Cl)N(CC(=O)OC(C)(C)C)C(=O)CO2 [Example 4, tert-butyl 2-(6-chloro-5,7-dimethyl-3-oxo-1,4-benzoxazin-4-yl)acetate] |  | > 100 |  | > 100
6 | O=C(O)[C@H]1C[C@@H]1C(=O)c1ccc(Cl)c(Cl)c1 [UPF-648] |  |  | 0.02 | 
7 | COC(=O)CN1C(=O)COc2cc(C)c(Cl)c(C)c21 [Example 1, methyl 2-(6-chloro-5,7-dimethyl-3-oxo-1,4-benzoxazin-4-yl)acetate] |  | > 100 |  | > 100
9 | CNC(=O)CN1C(=O)COc2cc(C)c(Cl)c(C)c21 [Example 7] |  | > 100 |  | > 100
10 | Cc1cc2c(c(C)c1Cl)N(CC(=O)N(C)C)C(=O)CO2 [Example 6, 2-(6-chloro-5,7-dimethyl-3-oxo-1,4-benzoxazin-4-yl)-N,N-dimethyl-acetamide] |  | > 100 |  | > 100
11 | CCOC(=O)CN1C(=O)COc2cc(C)c(Cl)c(C)c21 [Example 2, ethyl 2-(6-chloro-5,7-dimethyl-3-oxo-1,4-benzoxazin-4-yl)acetate] |  | > 100 |  | > 100
